Data from the NIST ThermoML archive (doi:10.1016/j.jct.2016.04.001).
Numbers after ± are expanded uncertainties.

Experiments:
[1] = 296 K; 101.33 kPa; Crystal; X-ray diffraction
[2] = molar heat capacity at constant pressure; conditions: 101.33 kPa, Crystal, Small sample (50 mg) DSC

## CCCCC(O)(Cn1cncn1)c1ccc(Cl)cc1Cl (configuration not stated)
[1]
  mass density: 1331 ± 7 kg/m3
[2]; 283.15 K
  molar heat capacity at constant pressure: 342.68 ± 8.7 J/K/mol
[2]; 288.15 K
  molar heat capacity at constant pressure: 351.02 ± 8.9 J/K/mol
[2]; 293.15 K
  molar heat capacity at constant pressure: 358.22 ± 9.1 J/K/mol
[2]; 298.15 K
  molar heat capacity at constant pressure: 364.66 ± 9.2 J/K/mol
[2]; 303.15 K
  molar heat capacity at constant pressure: 370.65 ± 9.4 J/K/mol
[2]; 308.15 K
  molar heat capacity at constant pressure: 376.44 ± 9.5 J/K/mol
[2]; 313.15 K
  molar heat capacity at constant pressure: 382.23 ± 9.7 J/K/mol
[2]; 318.15 K
  molar heat capacity at constant pressure: 388.15 ± 9.8 J/K/mol
[2]; 323.15 K
  molar heat capacity at constant pressure: 394.25 ± 10 J/K/mol
[2]; 328.15 K
  molar heat capacity at constant pressure: 400.53 ± 10 J/K/mol
[2]; 333.15 K
  molar heat capacity at constant pressure: 406.94 ± 10 J/K/mol
[2]; 338.15 K
  molar heat capacity at constant pressure: 413.34 ± 10 J/K/mol
[2]; 343.15 K
  molar heat capacity at constant pressure: 419.55 ± 11 J/K/mol
[2]; 348.15 K
  molar heat capacity at constant pressure: 425.32 ± 11 J/K/mol
[2]; 353.15 K
  molar heat capacity at constant pressure: 430.33 ± 11 J/K/mol

## CC(C)(C)C(O)/C(=C\c1ccc(Cl)cc1Cl)n1cncn1 (configuration not stated) [Diniconazole]
[1]
  mass density: 1323 ± 7 kg/m3
[2]; 283.15 K
  molar heat capacity at constant pressure: 360.4 ± 9.1 J/K/mol
[2]; 288.15 K
  molar heat capacity at constant pressure: 367.41 ± 9.2 J/K/mol
[2]; 293.15 K
  molar heat capacity at constant pressure: 374.58 ± 9.4 J/K/mol
[2]; 298.15 K
  molar heat capacity at constant pressure: 381.72 ± 9.6 J/K/mol
[2]; 303.15 K
  molar heat capacity at constant pressure: 388.72 ± 9.8 J/K/mol
[2]; 308.15 K
  molar heat capacity at constant pressure: 395.47 ± 9.9 J/K/mol
[2]; 313.15 K
  molar heat capacity at constant pressure: 401.89 ± 10 J/K/mol
[2]; 318.15 K
  molar heat capacity at constant pressure: 407.93 ± 10 J/K/mol
[2]; 323.15 K
  molar heat capacity at constant pressure: 413.6 ± 10 J/K/mol
[2]; 328.15 K
  molar heat capacity at constant pressure: 418.9 ± 11 J/K/mol
[2]; 333.15 K
  molar heat capacity at constant pressure: 423.89 ± 11 J/K/mol
[2]; 338.15 K
  molar heat capacity at constant pressure: 428.65 ± 11 J/K/mol
[2]; 343.15 K
  molar heat capacity at constant pressure: 433.27 ± 11 J/K/mol
[2]; 348.15 K
  molar heat capacity at constant pressure: 437.91 ± 11 J/K/mol
[2]; 353.15 K
  molar heat capacity at constant pressure: 442.73 ± 11 J/K/mol
